In article PMC8886686 (Journal of Inorganic Biochemistry, 2022):

Assays:
3CLpro^D155A/C156S = 3CLpro^D155A/C156S (Severe acute respiratory syndrome coronavirus 2, UniProt P0DTD1, C3419S/D3418A); type: biochemical, SARS-CoV-2; details: read-out: IC50, 3CLpro^D155A/C156S activity
PLpro^C112S = PLpro^C112S (Severe acute respiratory syndrome coronavirus 2, UniProt P0DTD1, C1674S); type: binding, SARS-CoV-2

## O=C([O-])[C@H](O)[C@@H](O)[C@H](O)[C@H](O)CO.O=C([O-])[C@H](O)[C@@H](O)[C@H](O)[C@H](O)CO.[Zn+2] [Zn^2+, zinc gluconate]
3CLpro^D155A/C156S
  IC50: 1540 ± 50 nM
PLpro^C112S
  Zn2+ binding capacity of PLpro^C112S (ICP-MS): 0.71 ± 0.01 eq.
